A word on the inhibition: it is the drop in the measured response relative to a control, in per cent.

This passage reports inhibition results from paper PMC3639963, “A New Class of Small Molecule Inhibitor of BMP Signaling” (PLoS ONE, 2013).

Experiment in all cases: Nanosyn kinase profiling
Holding throughout (assay type): biochemical
Holding throughout (conditions): read-out: Percentage inhibition; for inhibition at 0.1 µM: 0.1 µM inhibitor; for inhibition at 1 µM: 1 µM inhibitor

The target of one assay is T1, TYRO3 (Homo sapiens, UniProt Q06418).
T1 construct: purchased Nanosyn (enzymatic panel); SGC in-house recombinant human kinases (DSF panel); Invitrogen (ALK1-6)
T1 sequence (Q06418 41-890): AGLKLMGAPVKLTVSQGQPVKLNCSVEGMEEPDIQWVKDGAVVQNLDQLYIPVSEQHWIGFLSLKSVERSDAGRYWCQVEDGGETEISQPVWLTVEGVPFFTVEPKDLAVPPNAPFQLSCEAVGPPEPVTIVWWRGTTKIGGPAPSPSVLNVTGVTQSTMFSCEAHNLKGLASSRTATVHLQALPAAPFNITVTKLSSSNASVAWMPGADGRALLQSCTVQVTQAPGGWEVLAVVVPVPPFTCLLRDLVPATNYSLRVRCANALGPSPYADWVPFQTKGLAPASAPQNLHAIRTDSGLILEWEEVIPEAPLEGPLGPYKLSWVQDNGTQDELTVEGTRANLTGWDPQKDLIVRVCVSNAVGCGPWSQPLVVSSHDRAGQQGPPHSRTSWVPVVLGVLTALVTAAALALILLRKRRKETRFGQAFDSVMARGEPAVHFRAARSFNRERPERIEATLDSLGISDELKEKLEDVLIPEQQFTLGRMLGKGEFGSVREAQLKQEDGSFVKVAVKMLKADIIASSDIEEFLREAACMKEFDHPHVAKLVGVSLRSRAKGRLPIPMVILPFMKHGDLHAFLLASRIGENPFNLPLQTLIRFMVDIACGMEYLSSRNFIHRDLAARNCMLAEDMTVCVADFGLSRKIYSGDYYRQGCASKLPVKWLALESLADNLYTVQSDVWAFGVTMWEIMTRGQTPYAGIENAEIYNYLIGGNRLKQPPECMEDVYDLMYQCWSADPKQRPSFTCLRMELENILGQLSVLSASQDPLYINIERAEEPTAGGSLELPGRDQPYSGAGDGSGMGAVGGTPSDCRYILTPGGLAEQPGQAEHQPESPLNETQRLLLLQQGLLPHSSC
In a few lines:
(§1)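 Percent inhibition of each kinase was measured with the inhibitor at 0.1 µM and at 1 µM, as part of a 200-kinase human selectivity panel.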

A further assay addresses T2, FES (Homo sapiens, UniProt P07332).
T2 construct: purchased Nanosyn (enzymatic panel); SGC in-house recombinant human kinases (DSF panel); Invitrogen (ALK1-6)
The gist of the method:
as §1

The next assay addresses T3, ARK5 (Homo sapiens, UniProt O60285).
T3 construct: purchased Nanosyn (enzymatic panel); SGC in-house recombinant human kinases (DSF panel); Invitrogen (ALK1-6)
T3 sequence (O60285 1-661): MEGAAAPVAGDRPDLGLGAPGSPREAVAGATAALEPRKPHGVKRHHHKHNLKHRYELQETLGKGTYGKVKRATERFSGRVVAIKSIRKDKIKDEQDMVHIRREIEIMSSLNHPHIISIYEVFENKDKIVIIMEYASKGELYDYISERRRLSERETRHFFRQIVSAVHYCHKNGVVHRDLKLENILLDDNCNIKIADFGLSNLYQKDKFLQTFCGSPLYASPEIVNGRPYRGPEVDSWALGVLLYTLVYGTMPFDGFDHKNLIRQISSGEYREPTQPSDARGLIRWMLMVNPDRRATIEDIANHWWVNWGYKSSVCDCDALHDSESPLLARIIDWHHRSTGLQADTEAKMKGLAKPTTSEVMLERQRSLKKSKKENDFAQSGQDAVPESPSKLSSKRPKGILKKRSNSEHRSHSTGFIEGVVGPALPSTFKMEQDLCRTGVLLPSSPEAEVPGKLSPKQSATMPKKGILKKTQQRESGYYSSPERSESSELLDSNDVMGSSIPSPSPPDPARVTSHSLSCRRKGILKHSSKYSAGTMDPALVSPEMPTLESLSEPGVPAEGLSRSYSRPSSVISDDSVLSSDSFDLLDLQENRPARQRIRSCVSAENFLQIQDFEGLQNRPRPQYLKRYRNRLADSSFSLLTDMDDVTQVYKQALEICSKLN
The gist of the method: as §1

The target in the next assay is T4, TTK (Homo sapiens, UniProt P33981).
T4 construct: purchased Nanosyn (enzymatic panel); SGC in-house recombinant human kinases (DSF panel); Invitrogen (ALK1-6)
T4 sequence (P33981 1-857): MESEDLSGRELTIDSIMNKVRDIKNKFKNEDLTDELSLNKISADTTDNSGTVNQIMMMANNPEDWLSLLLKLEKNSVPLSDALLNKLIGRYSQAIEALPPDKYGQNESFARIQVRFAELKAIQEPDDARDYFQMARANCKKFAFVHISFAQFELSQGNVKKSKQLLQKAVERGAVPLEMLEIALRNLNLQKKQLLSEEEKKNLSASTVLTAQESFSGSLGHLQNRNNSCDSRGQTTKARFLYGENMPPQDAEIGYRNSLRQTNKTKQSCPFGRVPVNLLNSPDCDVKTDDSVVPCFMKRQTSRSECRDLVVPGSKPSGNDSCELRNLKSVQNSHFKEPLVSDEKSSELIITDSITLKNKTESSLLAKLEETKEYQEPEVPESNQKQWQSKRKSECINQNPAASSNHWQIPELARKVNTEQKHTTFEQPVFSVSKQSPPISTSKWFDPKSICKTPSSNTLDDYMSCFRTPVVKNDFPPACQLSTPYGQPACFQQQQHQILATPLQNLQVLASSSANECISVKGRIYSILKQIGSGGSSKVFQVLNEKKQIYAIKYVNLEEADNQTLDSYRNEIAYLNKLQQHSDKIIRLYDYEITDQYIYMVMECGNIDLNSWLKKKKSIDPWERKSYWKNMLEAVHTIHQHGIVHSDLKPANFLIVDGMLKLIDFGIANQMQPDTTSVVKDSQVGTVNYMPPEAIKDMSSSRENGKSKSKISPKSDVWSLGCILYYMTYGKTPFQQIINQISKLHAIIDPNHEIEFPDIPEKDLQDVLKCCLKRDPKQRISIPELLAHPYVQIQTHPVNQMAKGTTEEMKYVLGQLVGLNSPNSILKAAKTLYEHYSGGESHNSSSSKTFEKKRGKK
In a few lines: as §1

The target of a further assay is T5, TIE2 (Homo sapiens, UniProt Q02763).
T5 construct: purchased Nanosyn (enzymatic panel); SGC in-house recombinant human kinases (DSF panel); Invitrogen (ALK1-6)
T5 sequence (Q02763 23-1124): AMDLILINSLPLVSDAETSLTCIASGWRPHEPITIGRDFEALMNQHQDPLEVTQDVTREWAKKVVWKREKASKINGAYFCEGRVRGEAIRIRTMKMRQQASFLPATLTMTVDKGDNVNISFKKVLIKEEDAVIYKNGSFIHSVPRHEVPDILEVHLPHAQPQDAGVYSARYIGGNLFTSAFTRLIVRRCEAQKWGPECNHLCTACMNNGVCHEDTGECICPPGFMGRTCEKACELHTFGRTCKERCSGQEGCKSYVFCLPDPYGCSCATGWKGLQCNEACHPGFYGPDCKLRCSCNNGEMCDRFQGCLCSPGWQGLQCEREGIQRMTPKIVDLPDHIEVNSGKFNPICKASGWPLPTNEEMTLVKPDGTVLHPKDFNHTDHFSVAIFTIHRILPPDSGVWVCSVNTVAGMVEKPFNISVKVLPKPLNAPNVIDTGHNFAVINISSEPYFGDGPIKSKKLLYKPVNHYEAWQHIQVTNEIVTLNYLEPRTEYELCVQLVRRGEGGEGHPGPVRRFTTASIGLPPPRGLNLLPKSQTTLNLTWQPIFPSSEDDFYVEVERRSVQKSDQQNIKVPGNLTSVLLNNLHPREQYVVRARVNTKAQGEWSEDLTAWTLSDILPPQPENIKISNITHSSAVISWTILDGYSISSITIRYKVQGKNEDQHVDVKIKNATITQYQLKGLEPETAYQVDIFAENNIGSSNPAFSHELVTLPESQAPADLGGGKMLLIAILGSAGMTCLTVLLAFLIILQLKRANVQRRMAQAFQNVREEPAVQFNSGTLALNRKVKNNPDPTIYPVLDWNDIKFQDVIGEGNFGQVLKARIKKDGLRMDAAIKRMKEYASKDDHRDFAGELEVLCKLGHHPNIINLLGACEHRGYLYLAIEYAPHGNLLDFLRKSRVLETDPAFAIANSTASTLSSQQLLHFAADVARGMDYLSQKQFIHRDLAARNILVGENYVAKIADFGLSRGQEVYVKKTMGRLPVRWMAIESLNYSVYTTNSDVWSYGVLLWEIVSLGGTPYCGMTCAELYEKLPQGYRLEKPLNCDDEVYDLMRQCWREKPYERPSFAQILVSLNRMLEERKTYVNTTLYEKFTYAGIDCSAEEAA
The gist of the method: as §1

The next assay has as its target T6, CDK3/cycE (Homo sapiens, UniProt Q00526).
T6 construct: purchased Nanosyn (enzymatic panel); SGC in-house recombinant human kinases (DSF panel); Invitrogen (ALK1-6)
The gist of the method: as §1

T2 sequence (P07332 whole entry): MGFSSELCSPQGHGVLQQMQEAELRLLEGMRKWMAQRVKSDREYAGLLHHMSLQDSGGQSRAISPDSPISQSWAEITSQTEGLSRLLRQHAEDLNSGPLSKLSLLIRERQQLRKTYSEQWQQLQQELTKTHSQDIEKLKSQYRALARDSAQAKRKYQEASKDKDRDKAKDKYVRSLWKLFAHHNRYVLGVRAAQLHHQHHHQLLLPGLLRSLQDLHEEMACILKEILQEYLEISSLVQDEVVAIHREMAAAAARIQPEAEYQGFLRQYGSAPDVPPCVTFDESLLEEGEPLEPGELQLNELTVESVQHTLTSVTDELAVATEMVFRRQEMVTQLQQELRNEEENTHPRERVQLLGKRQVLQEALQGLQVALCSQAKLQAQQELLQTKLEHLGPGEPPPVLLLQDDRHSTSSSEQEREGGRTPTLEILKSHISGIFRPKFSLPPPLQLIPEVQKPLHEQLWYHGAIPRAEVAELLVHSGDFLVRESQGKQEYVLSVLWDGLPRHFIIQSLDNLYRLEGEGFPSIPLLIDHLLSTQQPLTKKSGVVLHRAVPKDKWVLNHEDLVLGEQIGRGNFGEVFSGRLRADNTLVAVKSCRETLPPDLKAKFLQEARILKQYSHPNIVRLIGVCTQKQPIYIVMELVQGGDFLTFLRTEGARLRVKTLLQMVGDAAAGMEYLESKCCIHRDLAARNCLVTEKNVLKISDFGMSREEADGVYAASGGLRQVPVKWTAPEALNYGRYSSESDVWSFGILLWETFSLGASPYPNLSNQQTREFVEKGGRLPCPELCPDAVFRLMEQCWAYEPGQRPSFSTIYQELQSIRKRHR
T6 sequence (Q00526 whole entry): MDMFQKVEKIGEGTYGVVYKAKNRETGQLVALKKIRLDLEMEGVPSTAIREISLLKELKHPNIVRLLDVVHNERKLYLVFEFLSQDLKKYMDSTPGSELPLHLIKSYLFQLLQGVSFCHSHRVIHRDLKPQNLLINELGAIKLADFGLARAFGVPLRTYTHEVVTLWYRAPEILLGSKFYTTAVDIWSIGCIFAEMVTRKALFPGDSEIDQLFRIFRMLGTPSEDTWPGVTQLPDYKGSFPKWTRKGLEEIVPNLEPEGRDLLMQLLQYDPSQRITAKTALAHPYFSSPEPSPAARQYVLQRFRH
T6 sequence (P24864 whole entry partner): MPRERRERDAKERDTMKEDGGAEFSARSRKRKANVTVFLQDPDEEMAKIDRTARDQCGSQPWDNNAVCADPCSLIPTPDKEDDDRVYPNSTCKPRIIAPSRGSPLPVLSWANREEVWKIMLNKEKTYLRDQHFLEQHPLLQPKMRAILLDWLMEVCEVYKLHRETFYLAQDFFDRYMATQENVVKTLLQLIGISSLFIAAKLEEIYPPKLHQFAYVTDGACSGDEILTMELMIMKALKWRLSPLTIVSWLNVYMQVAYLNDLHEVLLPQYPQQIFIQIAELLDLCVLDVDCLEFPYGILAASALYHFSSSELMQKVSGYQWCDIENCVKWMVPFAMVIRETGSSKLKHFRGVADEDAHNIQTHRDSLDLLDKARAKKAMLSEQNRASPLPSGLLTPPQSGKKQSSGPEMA

`COc1cc(-c2cc(-c3cccc(O)c3)cnc2N)cc(OC)c1OC` [K02288, 3-[6-amino-5-(3,4,5-trimethoxy-phenyl)-pyridin-3-yl]-phenol]: the inhibition at 0.1 µM at TYRO3 is 1.8%; at FES, -1%; on ARK5 it was 1.1%; on TTK it was -4%; at TIE2, 1%; on CDK3/cycE, 1.6%. Further, the inhibition at 1 µM on TYRO3 is 19%; on FES, -1%; at ARK5 it was 4.1%; at TTK it was -1%; at TIE2 it was 3%; at CDK3/cycE, -91%.
Turning to `c1ccc2c(-c3cnn4cc(-c5ccc(N6CCNCC6)cc5)cnc34)ccnc2c1` [LDN-193189], the inhibition at 0.1 µM on TYRO3 stood at 13%; at FES it was 2.2%; at ARK5, 16%; on TTK it was 4.5%; at TIE2, 2%; at CDK3/cycE, 1.6%. Moreover, the inhibition at 1 µM came to 58% on TYRO3; 2.4% on FES; 56% on ARK5; 7.6% at TTK; 16% at TIE2; 7% at CDK3/cycE.
